Consider nine compounds from patent publication US20140005163A1 (NOVARTIS AG, priority 2010, published 2014).

A short description of one series: Solubility at pH 6.8. Type of series: physicochemical. The essentials: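 Following the procedure of Zhou et al. (2007), compound solubility was determined at pH 6.8.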
Series [1] relates to PKB Ser473 phosphorylation in Rat1-myr-HA-p110 alpha cells. The experiment in a line: Reverse protein array assay, PKB Ser473 phosphorylation in Rat1-myr-p110 alpha cells. Type of series: cell-based. The settings on record: 0.5 h, pAkt Ser473, 30 minutes compound incubation, read-out: p-PKB IC50. The essentials:
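Rat1 cells expressing myristoylated HA-tagged p110 alpha, beta or delta were plated for at least 20 h, then exposed to 8-step serial compound dilutions (0.2% DMSO final) for 30 min at 37 °C. Lysates were spotted at four dilutions on protein microarrays, and relative fluorescence intensity of phospho-Ser473 PKB was calculated.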

For a further series, the target named is T1, mTOR (Homo sapiens, UniProt P42345).
T1 construct: purchased Invitrogen Corporation (Carlsbad/CA, USA) PV4753
T1 sequence (P42345 1360-2549 limits assumed): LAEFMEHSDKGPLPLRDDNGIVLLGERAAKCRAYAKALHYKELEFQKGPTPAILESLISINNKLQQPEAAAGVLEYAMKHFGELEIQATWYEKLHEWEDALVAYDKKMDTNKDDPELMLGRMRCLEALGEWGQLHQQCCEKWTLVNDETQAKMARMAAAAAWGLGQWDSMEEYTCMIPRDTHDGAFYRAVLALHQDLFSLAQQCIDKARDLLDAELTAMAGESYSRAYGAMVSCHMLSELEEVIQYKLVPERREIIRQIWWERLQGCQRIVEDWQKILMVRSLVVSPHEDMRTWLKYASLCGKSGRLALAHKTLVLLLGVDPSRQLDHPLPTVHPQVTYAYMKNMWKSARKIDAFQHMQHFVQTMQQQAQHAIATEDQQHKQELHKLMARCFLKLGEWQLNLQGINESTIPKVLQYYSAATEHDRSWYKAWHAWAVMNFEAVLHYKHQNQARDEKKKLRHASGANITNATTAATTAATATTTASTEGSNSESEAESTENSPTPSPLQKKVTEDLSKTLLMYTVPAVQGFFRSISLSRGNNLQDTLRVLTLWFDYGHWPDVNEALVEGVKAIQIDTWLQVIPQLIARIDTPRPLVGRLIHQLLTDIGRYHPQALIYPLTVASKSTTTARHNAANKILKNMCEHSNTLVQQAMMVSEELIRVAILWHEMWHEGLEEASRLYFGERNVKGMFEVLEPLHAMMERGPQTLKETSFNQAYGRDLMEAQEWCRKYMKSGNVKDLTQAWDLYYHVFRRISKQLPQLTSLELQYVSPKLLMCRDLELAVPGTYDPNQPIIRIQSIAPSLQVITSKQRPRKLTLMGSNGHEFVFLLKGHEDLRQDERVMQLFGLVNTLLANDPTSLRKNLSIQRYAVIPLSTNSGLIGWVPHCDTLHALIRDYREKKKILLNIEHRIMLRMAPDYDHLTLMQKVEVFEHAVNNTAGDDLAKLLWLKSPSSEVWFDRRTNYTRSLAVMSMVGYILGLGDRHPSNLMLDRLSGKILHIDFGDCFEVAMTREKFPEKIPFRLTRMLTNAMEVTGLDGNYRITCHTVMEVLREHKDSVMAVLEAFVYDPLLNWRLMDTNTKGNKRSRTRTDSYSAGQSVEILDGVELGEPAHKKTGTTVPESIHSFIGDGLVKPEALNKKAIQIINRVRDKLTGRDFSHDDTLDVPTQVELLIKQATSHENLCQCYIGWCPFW
The series is described as follows: Biochemical assay for m-TOR by TR-FRET. Conditions: 8 μM ATP, 400 nM GFP-4EBP1, 0.5 nM mTOR. Put shortly: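 TR-FRET detection of pThr46 on GFP-4EBP1 (400 nM final) using Tb3+-labelled antibody (0.5 nM), added with EDTA to stop reactions. Reactions ran at rt with 0.5 nM mTOR and 8 μM ATP (final) in HEPES pH 7.5 buffer containing 10 mM MnCl2.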
In general terms: Time-resolved FRET reads energy transfer from a long-lived donor to a nearby acceptor.

The test system of series [2] is S6 Ribosomal Protein phosphorylation Ser235/236 in TSC1 null mouse embryo fibroblast (MEF) cells. The experiment in a line: Reverse protein array assay, S6 Ribosomal Protein phosphorylation Ser235/236 in TSC1 null MEF cells. Type of series: cell-based. Conditions: 1 h, pS6 ribosomal protein Ser235/236, 60 minutes incubation, read-out: p-S6 IC50. Put shortly: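 TSC1−/− MEFs, seeded and held ≥20 h at 37 °C/5% CO2, were exposed to 8-step serial compound dilutions (0.02% DMSO final; DMSO vehicle control) for 60 min at 37 °C. Cells were then lysed on ice for 10 min and lysates spotted onto reverse protein array chips.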

[3] abbreviates: pH 6.8, aqueous buffer, thermodynamic from solid, read-out: solubility.

Structures are written as SMILES. In brackets after ≈: the same amount, converted by molar mass. Like-named read-outs stand apart in the source and are kept apart here.

As to `CNc1cc(-c2ccc3ncc4c(c3c2)n(-c2cn(C)nc2C)c(=O)n4C)cnc1F` [Example 150.2, 1-(1,3-Dimethyl-1H-pyrazol-4-yl)-8-(6-fluoro-5-methylamino-pyridin-3-yl)-3-methyl-1,3-dihydro-imidazo[4,5-c]quinolin-2-one], the solubility (usually the dissolved amount per volume that the medium holds) in the series “Solubility at pH 6.8” (setting [3]) was 4 µg/mL (≈ 9.58 µM). Besides, the half-inhibitory concentration (IC50) (commonly the concentration needed to halve the response being measured) in series [1] turned out to be 7 nM; on mTOR, 8 nM; in series [2] it was 1 nM.

In the case of `COc1ncc(-c2ccc3ncc4c(c3c2)n(-c2cn(C)nc2C)c(=O)n4C)c(OC)n1` [Example 234.2, 8-(2,4-Dimethoxy-pyrimidin-5-yl)-1-(1,3-dimethyl-1H-pyrazol-4-yl)-3-methyl-1,3-dihydro-imidazo[4,5-c]quinolin-2-one], the solubility in “Solubility at pH 6.8” (setting [3]) was found to be 22 µg/mL (≈ 51 µM). Besides, the half-inhibitory concentration (IC50) in series [1] came out at 13 nM; at mTOR, 10 nM; in series [2], 1 nM.

For `CNc1ncc(-c2ccc3ncc4c(c3c2)n(-c2cn(C)nc2C)c(=O)n4C)cc1F` [Example 141.2, 1-(1,3-Dimethyl-1H-pyrazol-4-yl)-8-(5-fluoro-6-methylamino-pyridin-3-yl)-3-methyl-1,3-dihydro-imidazo[4,5-c]quinolin-2-one], the solubility in “Solubility at pH 6.8” (pH 6.8) was determined as 2 µg/mL (≈ 4.79 µM). Moreover, the IC50 in series [1] is less than 5 nM; on mTOR, 7 nM; in series [2] it was 1 nM.

With `CNC(=O)c1cc(-c2ccc3ncc4c(c3c2)n(-c2cn(C(C)C)nc2C)c(=O)n4C)cnc1N` [Example 224.2, 2-Amino-5-[1-(1-isopropyl-3-methyl-1H-pyrazol-4-yl)-3-methyl-2-oxo-2,3-dihydro-1H-imidazo[4,5-c]quinolin-8-yl]-N-methyl-nicotinamide], in “Solubility at pH 6.8” (setting [3]), the solubility turned out to be 16 µg/mL (≈ 34 µM). The concentration for half-maximal inhibition (IC50) in series [1] came to 104 nM; at mTOR, 24 nM; in series [2], 20 nM.

Consider `Cc1nn(C)cc1-n1c(=O)n(C)c2cnc3ccc(-c4ccc(C(N)=O)cc4)cc3c21` [Example 41, 4-[1-(1,3-Dimethyl-1H-pyrazol-4-yl)-3-methyl-2-oxo-2,3-dihydro-1H-imidazo[4,5-c]quinolin-8-yl]-benzamide], for which the solubility in the series “Solubility at pH 6.8” (setting [3]) was determined as 14 µg/mL (≈ 33.9 µM). The IC50 worked out at 48 nM in series [1], 5 nM on mTOR and 23 nM in series [2].

Consider `COc1ncc(-c2ccc3ncc4c(c3c2)n(-c2cn(C)nc2C)c(=O)n4C)cc1C#N` [Example 132, 5-[1-(1,3-Dimethyl-1H-pyrazol-4-yl)-3-methyl-2-oxo-2,3-dihydro-1H-imidazo[4,5-c]quinolin-8-yl]-2-methoxy-nicotinonitrile], for which, in the series “Solubility at pH 6.8” (setting [3]), the solubility is 17 µg/mL (≈ 40 µM). Further, the IC50 in series [1] is 51 nM; on mTOR it was 934 nM; in series [2], 3 nM.

`CCN(C)C(=O)Cn1cc(-n2c(=O)n(C)c3cnc4ccc(-c5cncc(OC(C)C)c5)cc4c32)c(C)n1` [Example 58.5, N-Ethyl-2-{4-[8-(5-isopropoxy-pyridin-3-yl)-3-methyl-2-oxo-2,3-dihydro-imidazo[4,5-c]quinolin-1-yl]-3-methyl-pyrazol-1-yl}-N-methyl-acetamide]: the solubility in the series “Solubility at pH 6.8” (setting [3]) was 466 µg/mL (≈ 907 µM). The IC50 in series [1] was 53 nM; on mTOR, 23 nM; in series [2], 3 nM.

For the compound `Cc1nn(C)cc1-n1c(=O)n(C)c2cnc3ccc(-c4cnc5c(c4)nnn5C)cc3c21` [Example 72, 1-(1,3-Dimethyl-1H-pyrazol-4-yl)-3-methyl-8-(3-methyl-3H-[1,2,3]triazolo[4,5-b]pyridin-6-yl)-1,3-dihydro-imidazo[4,5-c]quinolin-2-one], the solubility in “Solubility at pH 6.8” (setting [3]) stood at 37 µg/mL (≈ 87 µM). Besides, the IC50 was found to be 166 nM in series [1], 179 nM on mTOR and 58 nM in series [2].

`CCOc1ccc(-c2ccc3ncc4c(c3c2)n(-c2ccnn2CC)c(=O)n4C)cn1` [Example 3.4, 8-(6-Ethoxy-pyridin-3-yl)-1-(2-ethyl-2H-pyrazol-3-yl)-3-methyl-1,3-dihydro-imidazo[4,5-c]quinolin-2-one]: in the series “Solubility at pH 6.8” (pH 6.8), the solubility was found to be 2 µg/mL (≈ 4.83 µM). In addition, the values for the IC50 (in series [1]; on mTOR; in series [2]) were 214 nM, 161 nM and 199 nM, respectively.
